Results taken from patent US20230226135A9, “ACETYLCHOLINE MODULATION OF IMMUNE FUNCTION” (BCell Solutions, Inc., priority 2019, published 2023).

Legend:
[1] = test system: splenic B cells; test: alpha 7 nAChR expression on splenic B cells after TLR 9 agonist CpG (flow cytometry); format: cell-based, mouse; conditions: after CpG treatment
Experimental: Cell Culture. Mice were sacrificed and spleens were removed. The tissues were dissociated, from which single cell suspensions were made by passing the spleens through 40 μm cell strainers. Red blood cells were lysed using ACK Buffer (Sigma, Inc). Cells were then cultured with TLR ligands at the designated concentrations at 1.010^6 cells/mL in 6 well plates. Cells were grown in RPMI 1640 (Invitrogen) supplemented with 5% fetal bovine serum (Invitrogen) in a humidified 5% CO2 incubator at 37° C. for the designated time period.
Isolation of Splenic Cells. Splenocytes were isolated from 8 week old C57BL/6J mice. Following sacrifice, spleens were removed and splenocytes isolated as above. Cells were then resuspended in complete RPMI and were cultured with the TLR ligands at the designated concentrations at 10^6 cells/mL in 6 well plates. […]
Antibodies and Flow Cytometry. […] Following staining, cells were analyzed comparing each level of staining to the appropriate isotype control on a Beckman Coulter Cytoflex benchtop flow cytometer. Data was analyzed using FlowJo software (Tree Star Inc.).
In FIG. 1A the X-axis represents fluorescence intensity of MHC class II expression on untreated splenic B cells from a C57BL6 mouse. […] The X axis reflects the relative fluorescence intensity before (green histogram) and after treatment with the TLR 9 agonist CpG (blue histogram).

[2] = test system: CD8+ T cells; test: CAP-induced expansion of CD8+ T cells with or without α7nAChR antagonist; format: in vivo; conditions: with CAP
[3] = test system: splenic B cells; test: CFA-sensitized mice treated with Peptide with or without MLA, FACS of splenic B cells; format: in vivo
Experimental: SUMMARY: A study was conducted to evaluate a potential alpha7 nAChR anti-inflammatory mechanism of the MKR-4 peptide, using the alpha7 nAChR antagonist methyllycaconitine (MLA). After enrollment, animals in Groups 2-4 were sensitized ID at the base of the tail with 0.1 mL FCA on Day 1. On Days 2, 3, 5 & 7 Groups were then dosed intraperitoneally (IP) with either: peptide and MLA in combination (2 mg/kg and 6 mg/kg, respectively); peptide (2 mg/kg) and MLA vehicle (saline) in combination; or peptide vehicle (saline) and MLA vehicle (saline). Animals were dosed once on Study Day 2 (MLA or MLA vehicle), and Days 3, 5 & 7 (Peptide or Peptide vehicle, MLA or MLA vehicle) as described in Table 2 below. Body weights were recorded on Study Days 0 & 8. Mice were euthanized for necropsy on Study Day 8, and serum and whole spleens were collected from all animals and sent to the sponsor for internal FACS analysis. Toxicity and Peptide mechanistic evaluation was based on absolute body weight change, spleen weights and sponsor FACS analysis (not included in report).
Antibodies and Flow Cytometry. Single cell suspensions were made of tissues or cells harvested from culture and stained with the following monoclonal antibodies: a monoclonal antibody directed against mouse alpha 7 nicotinic acetylcholine receptor (alpha 7 nAChR) (Santa Cruz Biotechnology); anti-mouse MHC Class II (M5114), and anti-mouse CLIP 15G4, Santa Cruz. Following staining, cells were analyzed comparing each level of staining to the appropriate isotype control on a Beckman Coulter Cytoflex benchtop flow cytometer. Data was analyzed using FlowJo software (Tree Star Inc.).
Experimental Design: On Study Day 0, mice were weighed and randomized by body weight into treatment groups. Following randomization, on Study Day 1, Groups 2-4 were sensitized ID at the base of the tail with 0.1 mL of FCA. When MLA and Peptide (FRIMAVLAS (SEQ ID NO: 389))—or their vehicles—were dosed on the same day, the MLA antagonist or vehicle was dosed 1 hour before the Peptide or its vehicle.
On Study Day 8, mice were anesthetized with Isoflurane (VetOne, Cat #502017) and bled to exsanguination followed by cervical dislocation for necropsy and tissue collection.

[4] = Dosing formulation storage and stability; format: physicochemical; conditions: 0.6 mg/mL in saline, frozen at -20 C
Experimental: Test Article Formulation Instructions & Calculations: Peptide dosing solution (0.2 mg/mL) was made fresh daily within 1 hour of use by diluting 0.09 mL of 5 mg/mL DMSO stock into 2.11 mL sterile saline. DMSO stock was kept at 4 C, then refrozen (to avoid repeated freeze-thaw cycles). Still, stock was relatively “solid” even at 4 C.
MLA antagonist dosing solution (0.6 mg/mL) was made on Day 2 by diluting the entire 5 mg in the sealed vial with 8.3 mL of sterile saline and aliquoting out ˜1.1 mL in each of seven 2 mL cryovials and freezing at −20 C. Four vials were used in the experiment, each thawed within 1 hour of use. Three vials remain frozen.
Dosing Formulations and Vehicle Storage & Stability: Saline vehicle is stable at 4 C for months. Peptide dosing solutions were made up and used fresh daily. […] MLA frozen “stock” solutions were stable for up to 1 month.

[5] = test system: CLIP+ B cells; test: CFA-induced arthritis model, CAP depletion of B cells with or without α7nAChR antagonist; format: in vivo, mice; conditions: co-treated with CAP, CFA model
Experimental: FIGS. 11A-11B. […] In this study, CAP was administered at 3 days after CFA, then once daily every 3 days, until day 10 after CFA.
The next series of experiments are focused on the effects of CAP on splenic immune cells. […] As part of this experiment, the mice were co-treated with CAP and the alpha-7 nicotinic acetylcholine receptor (α7nAChR) antagonist, methyllycaconitine (MCA).

[6] = test system: blood brain barrier (BBB); test: Intravital microscopy of BBB permeability and lymphocyte adhering/rolling in pial venules; format: in vivo, C57 BL/6J mice; conditions: P3C i.p., 24 hours
Excerpt: Whether intranasal infection with Streptococcus pyogenes would induce blood-brain barrier permeability in C57 BL/6J mice by a TLR-dependent mechanism was examined. Immediately following craniotomy, mice were placed under an intravital microscope to study vascular permeability and leukocytes. Permeability of cerebral blood vessels was observed using FITC-dextran fluorescent dye and, tracing of leukocytes is observed by labeling such cells with Rhodamine-6G. Intranasal infection with Streptococcus pyogenes (gram positive) increased BBB permeability (FIG. 4) and the number of adherent or rolling lymphocytes (FIG. 4) within 24 hours post-infection, compared to saline treated controls.
Methods: To test the hypothesis that intranasal infection may increase BBB permeability, we exposed mice to GAS via intranasal infection with Streptococcus pyogenes (GAS). We assessed BBB permeability using intravital microscopy, and we characterized the immune response to GAS using flow cytometric analysis of nasal associated lymphoid tissue (NALT), spleen, and brain.
Intranasal infection: Isoflurane gas was employed to briefly anesthetize mice (1-2 minutes). Once anesthetized, 7.5 uL of streptococcal bacterial suspension (OD600=0.5-0.6) was placed on each nares (outer nostril) of mouse. Control mice received intranasal inoculation with vehicle (PBS). The droplets were inhaled into nasal sinuses. This small volume avoids inoculation of the lungs, but reproducibly results in colonization of nasal-associated lymphoid tissue (NALT, Park 2003; Wang 2010).
Intraperitoneal injection: The TLR 1/2 agonist, Pam-3-Cys (25 ug/mouse; Pam3CSK4, InvivoGen, San Diego Calif.) was intraperitoneally (right side) injected into mice 24 hours before intravital microscopy. P3C causes immune cell activation and polycolonal expansion of B-lymphocytes by Toll-Like receptor ligation (Newell 2010). Control mice received equal volume of vehicle (PBS) intraperitoneally.
MHC class II-targeted proprietary peptide (TPP, Elim Biopharmaceuticals Inc., Hayward Calif.; also see Newell 2010) was administered intraperitoneally (5 ug/mouse, left side), sometimes in conjunction with P3C (right side). TPP was dissolved in DMSO for a final concentration of 2.5% DMSO in PBS. Control mice received vehicle (2.5% DMSO in PBS) intraperitoneally.
Preparation of Mice: Mice were anesthetized with an (i.p.) injection of 50% urethane (Sigma-Aldrich, U2500) in PBS ([…]) and maintained on heating pad. Anesthetic plane was assessed throughout preparation and experiments, by response to toe pinch. If needed, urethane supplement was given at 10% of original dose volume. To prepare mice tails for intravenous (i.v.) dye injection we maintained anesthetized mice on a heating pad for 10-15 minutes, and then briskly wiped tails (toward tail-end) with 70% ethanol wipes to remove scales/hair and increase vasodilation. Immediately following tail wiping, Fluorescein dextran 10 kDa (10 mg/mL, Sigma-Aldrich, FD10S) was administered (2 uL/g mouse) via right lateral tail vein and, Rhodamine 6G (0.2 mg/mL, Sigma-Aldrich, 83697) was administered (1.6 uL/g mouse) via left lateral tail vein. When needed, tail was wiped multiple times to ensure clear visualization of tail veins. Following successful (i.v.) injection of dyes, mice underwent craniotomy.
Craniotomy: A craniotomy (removal of a small area of skull) was performed to expose the cerebrum and allow imaging of cerebral microvasculature (specifically pial vessels of pia mater). First, an incision across the midline of the scalp was made to expose the right parietal bone. The skull was then carefully marked with a waterproof marker, designating the area, 1 mm posterior from the Bregma and 4 mm lateral from the midline, to be removed (craniotomy diameter: 2.5 mm). Next, the craniotomy was performed with a drill ensuring the dura mater was not cut. […]

**Q.** With 5′-tcgtcgttttgtcgttttgtcgtt-3′ [CpG] as the molecule, how does the “relative level of expression of nAChR per cell” value [1] read?
**A.** increases

**Q.** What about the “total splenocytes that express alpha 7 nAChR” value ([1]; untreated 9%) of the same molecule?
**A.** 37.6%

**Q.** With CCN1C[C@]2(COC(=O)c3ccccc3N3C(=O)C[C@H](C)C3=O)CC[C@H](OC)[C@@]34[C@@H]5C[C@H]6[C@H](OC)[C@@H]5[C@](O)(C[C@@H]6OC)[C@@](O)([C@@H](OC)[C@H]23)[C@@H]14 [MLA, methyllycaconitine, reference compound] as the molecule, how does the “effect of α7nAChR antagonist on CAP-induced CD8+ T cell expansion” value [2] read?
**A.** reversed

**Q.** What about the “effect of α7nAChR antagonist on CAP-induced CD8+ T cell expansion” value ([2]; listed as MCA) of the same molecule?
**A.** blocked

**Q.** And the “effect of MLA on Peptide induced reduction in CLIP+ B cells” value ([3]; CFA treated mice, MLA 6 mg/kg IP 1 hour before Peptide)?
**A.** reversed

**Q.** What about the “percentage of splenic B cells” value ([3]; CFA treated, Peptide treated (2 mg/kg) and treated with MLA (6 mg/kg IP)) of the same molecule?
**A.** 44.8%

**Q.** What about the “stability of frozen stock solutions” value [4] of the same molecule?
**A.** up to 1 month

**Q.** What about the “effect of α7nAChR antagonist on CAP-induced decrease in B cell expansion” value [5] of the same molecule?
**A.** reversed

**Q.** What about the “effect of α7nAChR antagonist on CAP-induced decrease in B cell expansion” value ([5]; listed as MCA) of the same molecule?
**A.** prevented

**Q.** What does the source list for Pam-3-Cys [P3C, reference compound]?
**A.** largest observed diameter of adherent lymphocytes [6]: 15 um; number of rolling lymphocytes ([6]; vs control, p<0.01): significantly increased; number of adherent lymphocytes ([6]; vs control, p<0.05): significantly increased; average diameter of adherent lymphocytes ([6]; control 5 um): 10 um
